From US11247987B2, “Inhibiting ubiquitin specific peptidase 30” (FORMA Therapeutics, Inc., priority 2017, dated 2022)

target: T1, human recombinant USP30 (Homo sapiens, UniProt Q70CQ3); assay: Ubiquitin-Rhodamine 110 Assay for USP30 Activity (USP30 Inhibitor Biochemical Assay); details: 0.2 nM USP30, 25 nM Ub-Rh110, 30 min preincubation, 30 min at room temperature; read-out: USP30 potency range (USP30 biochemical IC50 assay, IC50 ranges)
T1 construct: purchased Boston Biochem E-582
T1 sequence (Q70CQ3 1-517): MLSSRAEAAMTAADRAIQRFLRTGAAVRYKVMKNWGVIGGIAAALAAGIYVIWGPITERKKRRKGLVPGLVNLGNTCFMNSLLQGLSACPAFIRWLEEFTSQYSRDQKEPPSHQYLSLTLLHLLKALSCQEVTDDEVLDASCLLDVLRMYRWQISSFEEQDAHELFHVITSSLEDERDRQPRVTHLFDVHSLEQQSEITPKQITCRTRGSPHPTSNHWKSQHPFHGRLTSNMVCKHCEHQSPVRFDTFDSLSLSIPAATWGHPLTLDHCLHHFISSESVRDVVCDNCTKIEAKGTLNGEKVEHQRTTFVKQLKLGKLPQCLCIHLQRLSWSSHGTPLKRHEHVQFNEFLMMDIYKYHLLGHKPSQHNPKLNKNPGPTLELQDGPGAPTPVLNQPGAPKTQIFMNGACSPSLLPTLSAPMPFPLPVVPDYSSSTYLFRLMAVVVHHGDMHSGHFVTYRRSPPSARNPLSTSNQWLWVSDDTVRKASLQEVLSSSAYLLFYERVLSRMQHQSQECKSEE
Experimental: Example A: Biochemical Assay: Ubiquitin-Rhodamine 110 Assay for USP30 Activity (USP30 Inhibitor Biochemical Assay)
The assay was performed in a final volume of 9 μL in assay buffer containing 20 mM Tris-HCl (pH 8.0, (1M Tris-HCl, pH 8.0 solution; Corning 46-031-CM)), 1 mM GSH (L-glutathione reduced, Sigma-Aldrich, G4251-100G), 0.03% BGG (0.22 μM filtered, Sigma, G7516-25G), and 0.01% Triton X-100 (Sigma, T9284-10L). Nanoliter quantities of 10-point, 3-fold serial dilution in DMSO were pre-dispensed into 1536 assay plates (Corning, #3724BC) for a final test concentration of 25 μM to 1.3 nM, top to lowest dose, respectively. Concentration and incubation times were optimized for the maximal signal-to-background while maintaining initial velocity conditions at a fixed substrate concentration. The final concentration of USP30 (human recombinant USP30, Boston Biochem, cat. # E-582) in the assay was 0.2 nM. […] 3 μL of 2×USP30 was added to assay plates (pre-stamped with compound), preincubated for 30 minutes and then treated with 3 μL of 2×Ub-Rh110. Plates were incubated for 30 minutes at room temperature before addition of 3 μL of stop solution (final concentration of 10 mM citric acid (Sigma, 251275-500G)). Fluorescence was read on the Envision (excitation at 485 nm and emission at 535 nm; Perkin Elmer) or on the PheraSTAR (excitation at 485 nm and emission at 535 nm; BMG Labtech).
For all assay formats data were reported as percent inhibition compared with control wells based on the following equation: % inh=1−((FLU−AveLow)/(AveHigh−AveLow)) where FLU=measured Fluorescence, AveLow=average Fluorescence of no enzyme control (n=16), and AveHigh=average Fluorescence of DMSO control (n=16). IC50 values were determined by curve fitting of the standard 4 parameter logistic fitting algorithm included in the Activity Base software package: IDBS XE Designer Model205. Data is fitted using the Levenburg Marquardt algorithm.

**Q.** For `N#CN[C@H]1C[C@H](C(=O)Nc2cc(Cl)cc(C3CCCCC3)c2)C1` [Compound 1-62, (1r,3r)-N-(3-chloro-5-cyclohexylphenyl)-3-(cyanoamino)cyclo-butane-1-carboxamide], which IC50 is on record?
**A.** < 100 nM

**Q.** For `N#CN[C@H]1C[C@H](C(=O)Nc2cccc(-c3ccccc3)c2)C1` [Compound 1-69, (1r,3r)-3-(cyanoamino)-N-(3-phenylphenyl)cyclo-butane-1-carboxamide], which IC50 is on record?
**A.** 100 to 1000 nM

**Q.** How did the IC50 turn out when `COCc1nc(NC(=O)[C@H]2C[C@H](NC#N)C2)sc1C1CCCCC1` [Compound 1-16, (1r,3r)-3-(cyanoamino)-N-[5-cyclohexyl-4-(methoxymethyl)-1,3-thiazol-2-yl]cyclobutane-1-carboxamide] was run?
**A.** < 100 nM

**Q.** Which IC50 does the source give for `N#CN[C@H]1C[C@H](N2C[C@@H](Nc3ncc(C4CCCCC4)s3)CC2=O)C1` (single isomer, unassigned) [Compound 6-1] here?
**A.** 100 to 1000 nM

**Q.** `N#CN[C@H]1C[C@@]2(CCN(c3nc(Cl)c(C4CCCCC4)s3)C2=O)C1` [Compound 7-2, {[(2s,4r)-6-(4-chloro-5-cyclohexyl-l,3-thiazol-2-yl)-5-oxo-6-azaspiro[3.4]octan-2-yl]amino}carbonitrile] was tested. Which IC50 did it give?
**A.** 100 to 1000 nM

**Q.** `CN(c1cnc(C2CCCCC2)s1)C(=O)[C@H]1C[C@H](NC#N)C1` [Compound 1-4, (1r,3r)-3-(cyanoamino)-N-(2-cyclohexyl-1,3-thiazol-5-yl)-N-methylcyclobutane-1-carboxamide] was tested. Which IC50 did it give?
**A.** 100 to 1000 nM

**Q.** With `N#CN[C@H]1C[C@H](C(=O)Nc2cc(-c3cccc(Cl)c3)no2)C1` [Compound 1-41, (1r,3r)-N-[3-(3-chlorophenyl)-1,2-oxazol-5-yl]-3-(cyanoamino)cyclo-butane-1-carboxamide] as the molecule, how does the IC50 read?
**A.** 100 to 1000 nM

**Q.** For `N#CN[C@H]1C[C@]2(CCN(c3nc(Cl)c(C4CCCCC4)s3)C2=O)C1` [Compound 7-3, {[(2r,4s)-6-(4-chloro-5-cyclohexyl-1,3-thiazol-2-yl)-5-oxo-6-azaspiro[3.4]octan-2-yl]amino}carbonitrilc], which IC50 is on record?
**A.** < 100 nM

**Q.** How did the IC50 turn out when `CC1(C)[C@@H]2CC[C@@H](CNC(=O)[C@H]3C[C@H](NC#N)C3)[C@H]1C2` [Compound 1-67, (1r,3r)-3-(cyanoamino)-N-{[(1R,2R,5R)-6,6-dimethylbicyclo[3.1.1]heptan-2-yl]methyl}cyclo-butane-1-carboxamide] was run?
**A.** 100 to 1000 nM

**Q.** How did the IC50 turn out when `C[C@]1(C(=O)Nc2nc(Cl)c(C3CCCCC3)s2)C[C@H](NC#N)C1` [Compound 1-44, (1r,3s)-N-(4-chloro-5-cyclohexyl-1,3-thiazol-2-yl)-3-(cyanoamino)-1-methylcyclobutane-1-carboxamide] was run?
**A.** < 100 nM

**Q.** How did the IC50 turn out when `N#CN[C@H]1C[C@H](C(=O)Nc2nc(Cl)c(C3CC3)s2)C1` [Compound 1-36, (1r,3r)-N-(4-chloro-5-cyclopropyl-1,3-thiazol-2-yl)-3-(cyanoamino)cyclo-butane-1-carboxamide] was run?
**A.** < 100 nM

**Q.** Which IC50 does the source give for `N#CN[C@H]1CC[C@H](C(=O)N2CCN(c3ccccc3)CC2)C1` [Compound 12-6, {[(1S,3S)-3-(4-phenylpiperazine-1-carbonyl)cyclopentyl]amino}carbonitrile] here?
**A.** > 25000 nM

**Q.** With `C[C@H]1CCCC[C@@H]1c1cnc(NC(=O)[C@H]2C[C@H](NC#N)C2)s1` [Compound 1-23, (1r,3r)-3-(cyanoamino)-N-{5-[(1S,2S)-2-methylcyclohexyl]-1,3-thiazol-2-yl}cyclobutane-1-carboxamide] as the molecule, how does the IC50 read?
**A.** < 100 nM

**Q.** `N#CN[C@H]1C[C@@H](C(=O)Nc2nc(Cl)c(C3CCCCC3)s2)C1` [Compound 1-18, (1s,3s)-N-(4-chloro-5-cyclohexyl-1,3-thiazol-2-yl)-3-(cyanoamino)cyclo-butane-1-carboxamide] was tested. Which IC50 did it give?
**A.** 100 to 1000 nM

**Q.** Which IC50 does the source give for `CCC1(C(=O)Nc2cnc(C3CCCCC3)s2)CC(NC#N)C1` (stereo not shown) [Compound 1-46, (1r,3s)-3-(cyanoamino)-N-(2-cyclohexyl-1,3-thiazol-5-yl)-1-ethylcyclobutane-1-carboxamide] here?
**A.** 100 to 1000 nM

**Q.** How did the IC50 turn out when `CN(c1ncc(C(C)(C)C)s1)C(=O)[C@H]1C[C@H](NC#N)C1` [Compound 1-5, (1r,3r)-N-(5-tert-butyl-1,3-thiazol-2-yl)-3-(cyanoamino)-N-methylcyclo-butane-1-carboxamide] was run?
**A.** 100 to 1000 nM

**Q.** Which IC50 does the source give for `N#CN[C@H]1C[C@H](C(=O)Nc2cnn(-c3ccccc3)c2)C1` [Compound 5-5, trans-3-(cyanoamino)-N-(1-phenyl-1H-pyrazol-4-yl)cyclobutane-1-carboxamide] here?
**A.** 1000 to 10000 nM

**Q.** With `N#CN[C@H]1C[C@H](C(=O)Nc2cc(-c3cccc(C#N)c3)no2)C1` [Compound 1-51, (1r,3r)-3-(cyanoamino)-N-[3-(3-cyanophenyl)-1,2-oxazol-5-yl]cyclobutane-1-carboxamide] as the molecule, how does the IC50 read?
**A.** 100 to 1000 nM

**Q.** Which IC50 does the source give for `CC(C)(C)c1cnc(NC(=O)[C@H]2C[C@H](NC#N)C2)s1` [Compound 5-13, trans-N-(5-tert-butyl-1,3-thiazol-2-yl)-3-(cyanoamino)cyclobutane-1-carboxamide] here?
**A.** 100 to 1000 nM

**Q.** `N#CN[C@H]1CC[C@@H](C(=O)Nc2ncc(C3CCCCC3)s2)CC1` [Compound 10-1, cis-4-(cyanoamino)-N-(5-cyclohexyl-1,3-thiazol-2-yl)cyclohexane-1-carboxamide] was tested. Which IC50 did it give?
**A.** 100 to 1000 nM

**Q.** For `N#CN[C@@H]1CCC[C@H]1C(=O)Nc1ncc(C2CCCCC2)s1` [Compound 10-3, (1R,2R)-2-(cyanoamino)-N-(5-cyclohexyl-1,3-thiazol-2-yl)cyclopentane-1-carboxamide], which IC50 is on record?
**A.** 1000 to 10000 nM

**Q.** How did the IC50 turn out when `N#CN[C@H]1CCC[C@@H](C(=O)Nc2ncc(C3CCCCC3)s2)C1` [Compound 10-4, (1R,3S)-3-(cyanoamino)-N-(5-cyclohexyl-1,3-thiazol-2-yl)cyclohexane-1-carboxamide] was run?
**A.** > 25000 nM

**Q.** `CC(C)(C)c1cnc(NC(=O)[C@H]2C[C@@H](NC#N)C2)s1` [Compound 5-10, cis-N-(5-tert-butyl-1,3-thiazol-2-yl)-3-(cyanoamino)cyclobutane-1-carboxamide] was tested. Which IC50 did it give?
**A.** 10000 to 25000 nM

**Q.** `N#CN[C@H]1CCN(C(=O)Nc2ncc(C3CCCCC3)s2)C1` [Compound 2-2, (3S)-3-(cyanoamino)-N-(5-cyclohexyl-1,3-thiazol-2-yl)pyrrolidine-1-carboxamide] was tested. Which IC50 did it give?
**A.** 1000 to 10000 nM

**Q.** With `N#CN[C@H]1CC[C@H](C(=O)Nc2ncc(C3CCCCC3)s2)C1` [Compound 12-3, (1S,3S)-3-(cyanoamino)-N-(5-cyclohexyl-1,3-thiazol-2-yl)cyclopentane-1-carboxamide] as the molecule, how does the IC50 read?
**A.** 100 to 1000 nM

**Q.** With `N#CN[C@H]1CCN(C(=O)c2csc(-c3cccc(Cl)c3Cl)n2)C1` [Compound 12-8, {[(3S)-1-[2-(2,3-dichlorophenyl)-1,3-thiazole-4-carbonyl]pyrolidin-3-yl]amino}carbonitrile] as the molecule, how does the IC50 read?
**A.** 1000 to 10000 nM

**Q.** Which IC50 does the source give for `N#CN[C@H]1C[C@H](C(=O)Nc2nc(Cl)c(C3CCCCC3)s2)C1` [Compound 1-10, (1r,3r)-N-(4-chloro-5-cyclohexyl-1,3-thiazol-2-yl)-3-(cyanoamino)cyclo-butane-1-carboxamide] here?
**A.** < 100 nM

**Q.** `N#CN[C@H]1C[C@@](F)(C(=O)Nc2cc(-c3ccc(C(F)(F)F)cc3)n[nH]2)C1` [Compound 1-57, (1r,3r)-3-(cyanoamino)-1-fluoro-N-{3-[4-(trifluoro-methyl)phenyl]-1H-pyrazol-5-yl}cyclobutane-1-carboxamide] was tested. Which IC50 did it give?
**A.** 100 to 1000 nM

**Q.** How did the IC50 turn out when `CC(C)(C)[C@H]1CC[C@@H](NC(=O)[C@H]2C[C@H](NC#N)C2)CC1` [Compound 1-71, (1r,3r)-3-(cyanoamino)-N-[(1s,4s)-4-tert-butylcyclohexyl]cyclo-butane-1-carboxamide] was run?
**A.** 100 to 1000 nM

**Q.** Which IC50 does the source give for `CO[C@]1(C(=O)Nc2nc(Cl)c(C(C)(C)C)s2)C[C@@H](NC#N)C1` [Compound 8-1, N-(5-tert-butyl-4-chloro-1,3-thiazol-2-yl)-3-(cyanoamino)-1-methoxycyclobutane-1-carboxamide] here?
**A.** < 100 nM

**Q.** How did the IC50 turn out when `C[C@]1(C(=O)Nc2cnc(C3CCCCC3)s2)C[C@H](NC#N)C1` [Compound 1-11, (1r,3s)-3-(cyanoamino)-N-(2-cyclohexyl-1,3-thiazol-5-yl)-1-methylcyclobutane-1-carboxamide] was run?
**A.** < 100 nM
